Here are results for three molecules from publication PMC10127945 (Nature chemical biology, 2022).

Data set [1] addresses SARS-CoV-2 envelope (E) protein viroporin ion channel (Severe acute respiratory syndrome coronavirus 2, UniProt P0DTC4). The format is cell-based.
Data set [2] relates to SARS-CoV-2. Type of data set: cell-based, SARS-CoV-2 (USA-WA1/2020).
Data set [3] addresses ACE2 (Homo sapiens, UniProt Q9BYF1). Description: Biotin-switch assay for SNO-ACE2 in HeLa-ACE2 cells. The note with it: 100 μM SNOC. Type of data set: cell-based.
Data set [4] addresses TMPRSS2 (Homo sapiens, UniProt O15393). Description: Biotin-switch assay for SNO-TMPRSS2. Type of data set: cell-based. The note with it: 100 μM SNOC, 20 minutes, HeLa-ACE2 cells.
The nature of data set [5]: Stability in aqueous solution. Type of data set: physicochemical. Conditions: neutral pH.
The target of data set [6] is SARS-CoV-2 Spike protein (Severe acute respiratory syndrome coronavirus 2, UniProt P0DTC2). Type of data set: biochemical.
Data set [7] addresses ACE2/SARS-CoV-2 Spike protein binding (Homo sapiens, UniProt Q9BYF1). The format is cell-based.

Chain of ACE2 (Q9BYF1 18-805): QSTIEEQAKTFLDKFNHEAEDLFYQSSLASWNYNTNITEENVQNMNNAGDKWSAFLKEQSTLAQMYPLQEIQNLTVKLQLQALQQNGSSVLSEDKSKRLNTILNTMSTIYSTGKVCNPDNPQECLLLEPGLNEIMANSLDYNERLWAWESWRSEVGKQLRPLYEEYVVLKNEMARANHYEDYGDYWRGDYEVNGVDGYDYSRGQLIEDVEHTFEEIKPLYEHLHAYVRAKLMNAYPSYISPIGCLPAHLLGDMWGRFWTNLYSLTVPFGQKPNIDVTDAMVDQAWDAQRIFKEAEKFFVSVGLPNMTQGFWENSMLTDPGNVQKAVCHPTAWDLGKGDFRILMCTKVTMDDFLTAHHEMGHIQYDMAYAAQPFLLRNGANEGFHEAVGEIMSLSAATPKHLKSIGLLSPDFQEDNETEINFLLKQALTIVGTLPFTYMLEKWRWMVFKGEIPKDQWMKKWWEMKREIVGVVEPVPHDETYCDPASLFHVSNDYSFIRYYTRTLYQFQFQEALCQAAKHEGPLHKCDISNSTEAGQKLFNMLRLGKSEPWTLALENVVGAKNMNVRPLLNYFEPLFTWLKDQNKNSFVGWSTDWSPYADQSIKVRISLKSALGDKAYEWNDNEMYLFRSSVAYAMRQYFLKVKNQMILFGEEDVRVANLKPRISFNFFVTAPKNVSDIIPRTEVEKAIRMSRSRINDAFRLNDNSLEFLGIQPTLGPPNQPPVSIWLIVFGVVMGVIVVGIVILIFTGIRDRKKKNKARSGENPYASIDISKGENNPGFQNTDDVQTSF
Chain of ACE2/SARS-CoV-2 Spike protein binding (Q9BYF1 18-805 limits assumed): as the sequence (Q9BYF1 18-805) above
Chain of TMPRSS2 (O15393 whole entry): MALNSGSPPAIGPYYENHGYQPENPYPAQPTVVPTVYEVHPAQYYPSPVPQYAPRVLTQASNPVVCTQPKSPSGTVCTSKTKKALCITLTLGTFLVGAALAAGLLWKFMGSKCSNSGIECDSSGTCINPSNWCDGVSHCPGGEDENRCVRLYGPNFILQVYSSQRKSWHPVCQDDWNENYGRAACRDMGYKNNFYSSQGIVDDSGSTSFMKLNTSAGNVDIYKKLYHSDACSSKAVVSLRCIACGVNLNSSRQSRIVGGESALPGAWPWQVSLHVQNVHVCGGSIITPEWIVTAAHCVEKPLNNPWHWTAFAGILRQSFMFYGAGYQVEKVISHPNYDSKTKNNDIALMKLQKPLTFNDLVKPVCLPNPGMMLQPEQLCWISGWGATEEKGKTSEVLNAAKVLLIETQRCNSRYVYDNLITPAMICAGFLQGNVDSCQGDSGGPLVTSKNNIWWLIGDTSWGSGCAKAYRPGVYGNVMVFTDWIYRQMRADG
Chain of SARS-CoV-2 envelope (E) protein viroporin ion channel (P0DTC4 whole entry): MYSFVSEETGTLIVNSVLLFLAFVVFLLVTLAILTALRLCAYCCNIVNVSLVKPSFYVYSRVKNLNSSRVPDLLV

Consider `CC12CC3CC(C)(C1)CC(N)(C3)C2` [memantine], for which the “inhibition of E protein voltage-dependent K+ current” value in data set [1] was “inhibited”. Moreover, the “efficacy against live SARS-CoV-2 infection” value in data set [2] is reported as “no efficacy”.

For `NC12CC3CC(CC(C3)C1)C2` [amantadine], in data set [2], the “efficacy against live SARS-CoV-2 infection” value is on record as “no efficacy”.

For S-nitrosocysteine [SNOC], the “stability (persistence) of SNO-ACE2 formation” value in data set [3] was “at least 12 h”. Also, the “S-nitrosylation of ACE2” value in data set [3] (20 minutes) is “could be S-nitrosylated”. For the same molecule, the “S-nitrosylation of TMPRSS2” value in data set [4] is recorded as “could be S-nitrosylated”. Also, the “time for NO to dissipate” value in data set [5] was under 5 min. The “S-nitrosylation of Spike protein” value in data set [6] was “Lack of S-nitrosylation”. In addition, in data set [7], the “binding of purified S protein to HeLa-ACE2 cells” value is recorded as “significantly decreased binding”.
